Reference: patent US8609695B2, “Methods of treating and/or suppressing insulin resistance” (Endorecherche, Inc., priority 1999, dated 2013)
Marks after values point to notes of the source that are not given here.

Experiments:
intact female rats = test: 6-month treatment, fat accumulation in intact female rats receiving or not LHRH-A (Example 5); assay type: in vivo, Rattus norvegicus; parameters: FAT (%): dose or concentration left out as unconfirmed; conditions: 6 months; for FAT (%): DEXA, once daily; for increment of the percentage of body fat under LHRH-A: concomitant with LHRH-A
Procedure: The objective of this study is to determine the effect on fat of treatment with EM-652.HCl and dehydroepiandrosterone (DHEA) in intact female rats receiving or not a luteinizing hormone releasing hormone agonist (LHRH-A, LHRH ethylamide diacetate). For this purpose, intact female rats, treated or not with LHRH-A (2 μg/rat), received daily administration of EM-652.HCl (2.5 mg/kg) and DHEA (100 mg/kg), alone or in combination, for 6 months. EM-652.HCl was administered orally, DHEA was applied topically while LHRH-A was injected subcutaneously. All treatments were administered once daily.
One hundred twenty rats were separated into 8 groups of 15 animals for conduct of the study outlined below:
The LHRH-A is available in solution at a concentration of 1.0 mg/ml. We diluted this concentrated solution (in order to obtain a final concentration of 0.004 mg/ml) by using the following vehicle: 0.3% Sodium Chloride and 0.25% Sodium Phosphate monobasic, monohydrate in water. The sodium hydroxide (aqueous) was used to adjust the pH between 5.6-6.2.
Dosing suspensions/solutions were prepared every two weeks according to the most recent body weight (group mean) except for the LHRH-A solution. For EM-652.HCl administered orally, the vehicle (0.4% methylcellulose) was added to the tested compound, previously weighed into a glass bottle, at least 48 hours prior to the first dosing day. To ensure the homogeneity of dosing suspension, it was stirred at least 48 hours at 2 to 8 C. Dosing suspension was kept at 2 to 8 C. For DHEA solution applied topically, the ethanol was added to DHEA and the mix were agitated until dissolution of DHEA. Then, the polypropylene glycol was added and the solution agitated until homogeneity. Dosing solution was kept at 2 to 8 C. For LHRH-A solution injected subcutaneously, a dilution of the concentrated solution using the appropriate vehicle was prepared every month. Dosing solution was kept at 2 to 8 C.
The administration of tested compounds or vehicle was given from on Study Day 1 of the protocol. The tested compounds were given as suspension in 0.4% methylcellulose by oral gavage (0.5 ml/gavage/rat) once daily or were applied topically in 50% ethanol-50% propylene glycol (0.5 ml/application/rat) once daily. Rats from groups 5 to 8 received also the LHRH-A once daily by subcutaneous injection (0.5 ml/injection/rat). Rats not receiving a tested compound orally and/or topically received the appropriate vehicle alone.
Body composition was measured on whole skeleton of animal under Isoflurane-induced anesthesia using dual energy x-ray absorptiometry (DEXA; QDR 4500A, Hologic) during the acclimation period and after 6 months of treatment.

[1] = test system: ovariectomized female rats; test: 20-day treatment with EM-652.HCl, estradiol and DHEA, body fat (Example 6); assay type: in vivo, Rattus norvegicus; conditions: OVX rats; for decrease of body fat / decrease of retroperitoneal adipose tissue: 20 days; for Retroperitoneal adipose tissue / Fat %: enriched carbohydrate diet, 20 days oral, EM-652.HCl 0.5, E2 0.5, DHEA 100 mg/rat; for Fat %: DEXA day 21
Source text: d) Diet: Certified Rodent feed (Lab Diet #5002, pellets) and tap water were provided ad libitum during the acclimation period. During the study period, the rats received an enriched carbonhydrate diet ad libitum. The enriched diet (diet #3) was composed of (g/100 g): Corn starch, 31.2; Dextrose, 31.2; Casein, 20.0; Corn oil, 6.4; dl-Methionine, 0.3; Vitamin mix, 1.0; AIN-76 mineral mix, 4.9; Fiber, 5.0.
80 rats were assigned to 8 groups of 10 rats for the conduct of the study outlined below:
On day 0 of the study, rats from groups 2 to 8 were ovariectomized, by bilateral flank incision, under Isoflurane-induced anesthesia. Rats from group 1 were sham-operated.
The administration of the test articles or vehicle began on Day 1 (the day following the ovariectomy). The tested compounds were given as suspensions in 0.4% methylcellulose by oral gavage (0.5 ml/gavage) for 20 days.
On day 21 of the study (prior to the necropsy), body composition was determined on whole body skeleton of animals under Isoflurane-induced anesthesia using dual energy x-ray absorptiometry (DEXA; QDR 4500A, Hologic) in order to determine the effect of treatments on fat percentage.
Right and left retroperitoneal adipose tissue were collected and weighed.

ovariectomized rats = test: 20-day treatment with EM-652.HCl, body fat, body weight and energy balance (Example 3); assay type: in vivo, rat; conditions: 20 days
Procedure: Eight to ten week-old female Sprague-Dawley rats (Crl:CD(SD)Br) (Charles River Laboratory, St-Constant, Canada) weighing approximately 200-225 g at the start of treatment were used. The animals were acclimatized to the environmental conditions (temperature: 22±3° C.; 10-h light-14-h dark cycles, lights on at 06:00 h) for 1 week before starting the experiment. The animals were housed individually in stainless steel cages of conventional design and were allowed free access to tap water and a high carbohydrate mixed diet composed of (g/100 g): Corn starch, 31.2; Dextrose, 31.2; Casein, 20.0; corn oil, 6.4; dl-Methionine, 0.3; Vitamine mix, 1.0; AIN-76 mineral mix, 4.9 and fiber, 5.0. The experiment was conducted in a Canadian Council on Animal Care approved facility in accordance with the CCAC Guide for Care and Use of Experimental Animals.
On day 1 of the study, the animals of the appropriate groups were bilaterally ovariectomized (OVX) under isoflurane anesthesia. […] The treatment with EM-652.HCl or vehicle alone (0.4% methylcellulose in water) was initiated on day 2 of the study. The compound or vehicle was given once daily by oral gavage in 0.5 ml/rat for 20 days. Body weights and food consumption were recorded every 2 days.
Approximately 24 hours after the last dosing, overnight fasted animals were anesthesized with ketamine-xylazine and blood drawn by cardiac puncture. The blood was collected as well as white and brown adipose tissues.
Body weight, food intake, and body gains in energy, fat, and protein were determined according to Deshaies et al, Am. J. Physiol., 1997; 273, E355-E362 (1997).
Lipoprotein lipase activities were determined according to Deshaies et al, Am. J. Physiol., 1997; 273, E355-E362 (1997).

[2] = OVX rats, EM-652.HCl 0.5 mg/rat oral once daily, E2 implant

With C[C@]12CC[C@H](O)CC1=CC[C@@H]1[C@@H]2CC[C@]2(C)C(=O)CC[C@@H]12 [DHEA, dehydroepiandrosterone] as the molecule, how does the “FAT (%)” value (intact female rats) read?
Its value is 20.2 ± 2.3%.

What about the “increment of the percentage of body fat under LHRH-A” value (intact female rats) of the same molecule?
Its value is 19%.

What about the “decrease of body fat” value [1] of the same molecule?
The value was 59%.

What about the “decrease of retroperitoneal adipose tissue” value [1] of the same molecule?
The value was 75%.

What about the Retroperitoneal adipose tissue [1] of the same molecule?
Its Retroperitoneal adipose tissue is 0.92 ± 0.17 g.

What about the Fat % [1] of the same molecule?
Its Fat % is 7.8 ± 0.8%.

With CC1=C(c2ccc(O)cc2)[C@H](c2ccc(OCCN3CCCCC3)cc2)Oc2cc(O)ccc21.Cl [EM-652.HCl, (S)-(+)-7-hydroxy-3-(4′-hydroxyphenyl)-4-methyl-2-(4″-(2′″-piperidino-ethoxy)phenyl)-2H-1-benxopyran hydrochloride] as the molecule, how does the “FAT (%)” value (intact female rats) read?
The value was 19.1 ± 1.4%.

What about the “increment of the percentage of body fat under LHRH-A” value (intact female rats) of the same molecule?
The value was 35%.

What about the “decrease of body fat” value [1] of the same molecule?
Its value is 46%.

And the “decrease of retroperitoneal adipose tissue” value [1]?
The value was 59%.

And the Retroperitoneal adipose tissue [1]?
Its Retroperitoneal adipose tissue is 1.52 ± 0.18 g.

And the Fat % [1]?
The Fat % was 10.2 ± 1.2%.

And the “Ovx-induced increase in energy intake” value (ovariectomized rats)?
The value was “completely prevented”.

And the “Ovx-induced insulin resistance (fasting hyperinsulinemia and hyperglycemia)” value (ovariectomized rats; FIG. 5)?
Its value is “prevented”.

And the “decrease in soleus muscle lipoprotein lipase by Ovx” value (ovariectomized rats; FIG. 8)?
The value was “prevented”.

And the “soleus weight increase by Ovx” value (ovariectomized rats; FIG. 8)?
The value was “prevented”.

What about the “OVX increase in mass of inguinal and retroperitoneal adipose tissues” value (ovariectomized rats; FIGS. 6A and 6C) of the same molecule?
Its value is “completely abolished”.

What about the “body weight gain after ovariectomy” value (ovariectomized rats; OVX rats, FIG. 2A) of the same molecule?
Its value is “completely reversed”.

And the protein gain (ovariectomized rats; OVX rats, FIG. 2B)?
Its protein gain is “less accentuated”.

And the “fat gain after ovariectomy” value (ovariectomized rats; OVX rats, FIG. 2C)?
The value was “completely reversed”.

What about the Cumulative food intake (ovariectomized rats; OVX rats, FIG. 3) of the same molecule?
Its Cumulative food intake is “lower than that of intact animals”.

What about the “increase in body energy from proteins following ovariectomy” value (ovariectomized rats; OVX rats, FIG. 4A) of the same molecule?
The value was “completely reversed”.

And the “increase in body energy from fat following ovariectomy” value (ovariectomized rats; OVX rats, FIG. 4B)?
Its value is “completely reversed”.

And the “interscapular brown adipose tissue weight, protein content and lipoprotein lipase activity” value (ovariectomized rats; OVX rats, FIG. 7)?
The value was “completely reversed”.

And the Digestible energy intake (ovariectomized rats; [2])?
The Digestible energy intake was 4479^b kJ.

What about the Enegery gain (ovariectomized rats; [2]) of the same molecule?
The Enegery gain was 278^b kJ.

And the “Apparent energy (expenditure)” value (ovariectomized rats; OVX rats, calculated from energy intake and energy gain)?
The value was 4201^b kJ.

And the Food efficiency (ovariectomized rats; OVX rats, kJ deposited per 100 kJ ingested)?
Its Food efficiency is 5.9b %.
